Data reported in patent EP0505817A1, “Use of phosphatidylserine and its derivatives for the manufacture of a medicament for the treatment of degenerative pathologies also associated with immune disfunctions” (FIDIA S.p.A., priority 1991, dated 1992).

System: TNF-α
Assay: Serum TNF induced by LPS in the mouse after phospholipid pretreatment (L-929 cytotoxicity bioassay)
Assay type: in vivo
Settings: S. Thyphi LPS 5 µ i.p., blood 60' later; for TNF-α title treated: average ± SEM
Protocol: Utilized are: • 170 Charles River CD-1 albino male mice weighing about 25-30 g • 6 New Zealand male rabbits weighing about 2-2.5 kg.
The animals after 90' from the last phospholipidic treatment or with THIS (as indicated later-on), are treated by parenteral route with S. Thyphi or E. Coli (Sigma) lipopolysaccharide.
Particularly: • mouse: injection of 5 µg LPS i.p. (1st experiment) or 25 µg LPS i.v. (2nd experiment) the blood sample is taken after 60 min. • rabbit: injection of 1 µg LPS i.v.. The blood sample is taken after 90 minutes.
The following products are tested: • BC-PS (phosphatidylserine in the commercially available form consisting of a composition comprising: phosphatidylserine extracted from bovine brain as described in example 1) • PS (phosphatidylserine) • PC (phosphatidylcholine) • PG (phosphatidylglycerol) • DPS (lysophosphatidylserine) • PE (phosphatidylethanolamine) • […] (1-myristoyl-2-deoxi-3-glycerophospho-L-serine) The phospholipids purity and their composition are determined by thin layer bidimensional chromatography (Punzi, L. et al.: Phospholipids in inflammatory synovial effusions. Rheumatol. Int. 6, 7-11, 1986).
Phospholipids are then solubilized in 50 mM TRIS-HCl pH 7.8 and suitably sonicated.
The phospholipidic dispersion is then injected in animals under the following conditions: • mouse: BC-PS 15-30 mg/kg/die i.p. for 3 days or 30 mg/kg/die i.v. for 3 days DPS, PSS₄ 20 mg/kg/die i.p. for 3 days PS, PC, PG, PE 25 mg/kg/die i.p. for 3 days • rabbit: 30 mg/kg/die i.v. for 5 days.
LPS is then administered following the above mentioned conditions with successive blood sample for the seric TNF dosage.
The level of seric TNF was evaluated by biological dosage, using the fibroblasts line L-929 of murine sarcoma (American type culture collection). In fact TNF is cytotoxic against said line (Meager A. et al.: Assays for tumor necrosis factor and related cytokines. J. Immunol. Methods 116: 1-17, 1989).
Shortly, 5 x 10⁴ cells are cultured in 96 well plates with 0.1 ml RPMI 1640 medium containing 10 % (v/v) of bovine serum inactivated at 56 °C for 30'.
After 18 hours the medium is replaced with 0.1 ml of fresh medium, containing serial dilutions of serum samples to be tested in the presence of actinomycin D (2 µg/ml) and lithium chloride 20 mM in order to increase the method sensitivity, namely the TNF cytotoxicity (Beyaert R. et al.: Lithium chloride potentiates tumor necrosis factor-mediated cytotoxicity in vitro and in vivo. Proc. Natl. Acad. Sci. 86: 9494-9498, 1989).
An […] (4000 U/ml of TNF-α(Genzyme) is added to 3 wells in every plate and said wells are utilized as positive control in order to check the sensitivity level of the cellular line, namely to verify the specificity dosage.
As negative controls, wells containing untreated mice serum, are used.
After 18 hours the medium is sucked and replaced with 0.1 ml of a saline solution containing 30 mM of glucose and 0.45 mg/ml of MTT tetrazolium (3-[4,5-dimethylthiazol-2-yl]-2,5 diphenyl-tetrazolium bromide. Then, after 4 hours, 0.1 ml of an acid solution of isopropanol (0.08 N HCl in isopropanol) is added and the absorbance is read by using a plate spectrophotometer scanner provided with a filter specific for 570 nm absorbance.
TNF cytotoxicity is calculated, by applying the formula: [formula] TNF-α title in serum samples is expressed in unit/ml and corresponds to the inverse of the dilution bringing to 50 % of cellular survival (Meager A. et al.: Assays for tumor necrosis factor and related cytokines. J. Immunol. Methods 116: 1-17, 1989).
In order to validate the test an anti-TNF-α murine antibody (Genzyme) is used which, as foreseen (see the results) blocks completely the cytotoxicity of murine serum but not the one of rabbit serum.

| Compound | TNF-α title treated (dose 20 mg/kg i.p. for 3 days) | Inhibition (%) (dose 20 mg/kg i.p. for 3 days) | Inhibition (%) (dose 25 mg/kg i.p. for 3 days) | TNF-α title treated (dose 25 mg/kg i.p. for 3 days) |
| --- | --- | --- | --- | --- |
| CCCCCCCCCCCCCC(=O)OCCCOP(=O)(O)OC[C@H](N)C(=O)O [PSS₄, 1-myristoyl-2-deoxi-3-glycerophospho-L-serine] | 50±16 (5) U/serum ml | – | – | – |
| lysophosphatidylserine [DPS] | 45±11 (5) U/serum ml | 80 | – | – |
| phosphatidylcholine [PC, reference compound] | – | – | 16% | 176±53 (12) U/serum ml |
| phosphatidylethanolamine [PE] | – | – | 56% | 137±46 (6) U/serum ml |
| phosphatidylglycerol [PG, reference compound] | – | – | inactive | 238±37 (18) U/serum ml |
| phosphatidylserine [PS] | – | – | 68% | 81±21 (9) U/serum ml |
